According to PMC12655527, “An Investigational Study on the Role of ADME Agents’ Genetic Variation on DD217 Pharmacokinetics and Safety Profile” (Pharmaceuticals, 2025):

Assays:
Factor Xa = tested on: Factor Xa; set-up: method as in PMID 29468977; details: preclinical studies; cited from earlier work
[1] = tested on: patients undergoing knee replacement surgery; experiment: Bleeding events during 14-day therapy, phase II trial; type: in vivo, human; details: for Bleeding, n (safety outcomes): 14 days
Text: The design, eligibility criteria, and outcomes of the phase II clinical trial evaluating the safety and tolerability of DD217 (NCT05189002, ClinicalTrials.gov) have been described previously. Briefly, this was a multicenter, double-blind, randomized, prospective phase II study designed to determine the optimal dosing regimen and to assess the safety and efficacy of DD217 for the prevention of venous thromboembolism (VTE) in patients undergoing knee replacement surgery. Patients were randomized into one of three groups: two groups received oral DD217 at doses of 40 mg or 60 mg once daily, starting on the morning of the first postoperative day, and one group received the active comparator, dalteparin sodium. The treatment duration was 14 days.
In total, seven cases of DVT/PE were documented during the trial: four in the DD217 40 mg/day group, one in the DD217 60 mg/day group, and two in the dalteparin sodium group. In addition, two bleeding events were recorded: one clinically relevant non-major bleed in the DD217 60 mg/day group and one clinically non-relevant minor bleed in the dalteparin sodium group.

Compound: CC(=N)N(C)c1ccc(C(=O)Nc2ccc(C)cc2C(=O)Nc2ccc(Cl)cn2)cc1.Cl [DD217, N-(5-chloropyridin-2-yl)-5-methyl-2-[4-(N-methylacetimidamido)benzamido]benzamide hydrochloride]
- affinity for the active site of factor Xa (Factor Xa): high affinity
- Bleeding, n (safety outcomes) ([1]; DD217 40 mg/day oral, of 16 patients): 0 n
- bleeding events ([1]; DD217 60 mg/day group, clinically relevant non-major bleed): one
- Bleeding, n (safety outcomes) ([1]; DD217 60 mg/day oral, of 18 patients): 1 n
